Marks after values point to notes of the source that are not given here.

The test system of one assay is AMPK in Huh-7 cells. In words: Activation activity on AMPK in Huh-7 cells (Western Blot). Format: cell-based. The conditions noted are these: 10 μM, 12 h, Western Blot gray scale, relative to DMSO = 1. As to the method: The activation activity of a compound on AMPK in Huh-7 cells was detected by using Western Blot.
Cell culture conditions: Huh-7 cells were cultured in an incubator with 5% CO2 at 37° C. in DMEM complete medium (containing 10% fetal calf serum and 1% streptomycin/penicillin).
Antibody: anti-AMPK (CST, 2532S); anti-pAMPK (CST, 2535S).
Western Blot experiment: the influence of the compound on phosphorylation level of the AMPK in the Huh-7 cells was detected: cells with more than 90% cells alive were taken for the experiment. In a 12-well plate, the Huh-7 cells were plated in the plate at 250000 cells per well, the plate was placed in the incubator with 5% CO2 at 37° C. for culture, an original culture medium was discarded after 12 h, a complete medium containing the pentacyclic triterpenoid saponin was added, a final concentration of subject pentacyclic triterpenoid saponin was set to be 10 μM, and an administration time was set to be 12 h. A positive control compound employs AICAR (100 μM), metformin (70 μM) or A-769662 (100 μM). Then proteins were extracted for Western Blot detection.
Experimental result: a Western Blot experimental result was subjected to gray scale scanning, a p-AMPK/AMPK ratio of negative control DMSO was defined as 1, and a p-AMPK/AMPK ratio of the subject compound was a relative ratio of a negative control group. The larger the numerical value was, the stronger the activation activity of the AMPK of the compound was.
(In western blotting, separated proteins are transferred to a membrane and probed.)

In assay [1] the test system is human ADPKD cyst lining epithelial cell lines WT9-12. In words: Proliferation of polycystic kidney epithelial cells (CCK-8 method). The settings on record: polycystic kidney epithelial cells; 10 μM, 48 h; CCK-8; n = 6. Format: cell-based. An excerpt: Cell and reagent: complete media for human ADPKD cyst lining epithelial cell lines WT9-12 and DMEM were purchased from ATCC Company; fetal calf serums were purchased from Gibco Company; Cell Counting Kit-8 was purchased from DOJINDO Company; Click-iT® EdU Imaging Kits were purchased from Invitrogen™ Thermo Fisher Scientific Company; Caspase -3/CPP32 Colorimetric Assay Kit was purchased from BioVision Company; Annexin V/PI double-staining flow type cell apoptosis detection kits were purchased from Bender Company; and anti-Phospho-(AMPKa, mTOR, p70S6K, 4E-BP1) antibodies were purchased from Cell Signaling Technology Company.
The influence of 2-DG on proliferation of the polycystic kidney epithelial cells was detected with a CCK-8 method: a DMEM complete medium containing 10% fetal calf serum (FBS) was prepared. The polycystic kidney epithelial cells were cultured in an incubator with 5% CO2 at 37° C. after being recovered, a solution was replaced every other day, the polycystic kidney epithelial cells were passaged every 2-3 days, and the cells were in a growing state of adhering to the wall. After trypsin enzyme digestion, cells were resuspended by using a complete medium, the concentration of a polycystic kidney epithelial cell suspension was regulated to be 3×10^7/L, the polycystic kidney epithelial cell suspension was inoculated to 96-well plate by […] per well for culture for 24 h, and the suspension was replaced by a culture medium containing 0.1% FBS for synchronization for 24 h.
Background: Formazan colour is commonly taken as a measure of viable cells.

Assay [2] has as its system high fat diet induced NASH model rats. The experiment in a line: High fat diet (HFD) induced NASH rat model. The class given is in vivo. Set-up: MDA: unit not given here. As to the method: Animal: 32 SD male rats of SPF level with 6 weeks old and 220 g were purchased from Beijing Vital River Laboratory Animal Technology Co., Ltd. All the animals maintained 12 h alternative circadian rhythm with free access to food.
Reagent: the ginsenoside Ro (I) was purchased from Shanghai Boka Chemistry Technology Co., Ltd; obeticholic acid (OCA) was purchased from Jiangsu Vcare PharmaTech Co., Ltd; high fat diets were purchased from Research Diets (D12492, 60 kcal %); and standard feeds were purchased from Research Diets (D12450B, 10 kcal %).
The rats were randomly divided into 4 groups based on the weight: a control group (CHOW), a high fat diet model group (HFD), a positive drug obeticholic acid (OCA, 5 mg/Kg) group (HFD+OCA) and a ginsenoside Ro (Ro for short, 5 mg/kg) group (HFD+Ro). The control group was fed with the standard feeds and drank water normally; and the rest groups were fed with the high fat diets, drank 10% aqueous sucrose solution for replacing the water and were modeled for 20 weeks.
After 20 weeks, the control group and the high fat diet model group were given with a CMC-Na solution with the volume fraction of 0.5% intragastrically every day, the HFD+OCA group was given with the obeticholic acid (5 mg/Kg) intragastrically every day, and the HFD+Ro was given with the ginsenoside Ro (5 mg/Kg) intragastrically every day. Administration was conducted for 8 weeks, during which, the control group was given with the standard feeds and drank the water normally, and the rest three groups were given with the high fat diets and drank 10% aqueous sucrose solution. The rats in each group were weighed every day, weights, hairs, feces and activity conditions were carefully observed and recorded.
The rats were deprived of food but not water for 12 h in advance; and the next morning, blood was taken from eye sockets, the rats were sacrificed, and livers were harvested. Right liver lobule tissues were fixed with 4% paraformaldehyde for HE stained slicing. A part of liver tissues were divided into 3 parts, which were snap-frozen in liquid nitrogen for subsequent detection of other indexes.
Whole blood was left to still standing for 2 h at room temperature, centrifugation was conducted for 15 min at 3000 rpm, and a serum was collected. 100 Mg of liver tissues were taken and homogenized with 0.9 mL of precooled normal saline, a homogenate was centrifuged for 15 min at 4° C. and 3000 rpm, and a supernatant was taken. Both of the serum and the supernatant were sent to Pathologic Department of Hospital of Integrated Traditional Chinese and Western Medicine in Jiangsu Province for determination of levels of triglyceride (TG), total cholesterol (TC), low density lipoprotein cholesterin (LDL-c) and high density lipoprotein cholesterol (HDL-c) in the serum and levels of the TG and the TC in the supernatant of the homogenate of the liver tissues with the full-automatic biochemical analyzer.
Pretreated tissues were sent to Google Biotechnology Co., Ltd for preparing HE stained slices and oil red stained slices.
Liver tissues preserved at −80° C. were put in the liquid nitrogen, about 10 mg of the liver tissues were quickly dissected out, 500 μL of precooled tissue lysate was added, and the tissues were homogenized with a homogenizer and then left to lyse on ice for 30 min; and centrifugation was conducted for 15min at 4° C. and 12000 rpm, […] of a supernatant was sucked to a clean EP tube, […] of the supernatant was taken for BCA protein quantification, […] of 5*loading buffer was added in the rest protein supernatant for denaturing by boiling, SDS-PAGE electrophoresis was conducted subsequently, the proteins were transferred onto a PVDF membrane, then incubation and elution of a relevant antibody were conducted, and finally, a chemiluminescence apparatus was employed for imaging analysis.

Where [3] appears, read: HFD NASH rats, summary in words.
[4] abbreviates: HFD induced NASH model rats, 5 mg/Kg, n = 8.
Setting [5] is: serum of HFD induced NASH model rats, 5 mg/Kg, n = 8.

With madecassoside [(VI)], the pAMPK/AMPK ratio with AMPK in Huh-7 cells amounted to 2.27. Also, in assay [1], the “Inhibition rate (%)” value is reported as 76.3 ± 2.3 %. Further, in assay [2] (setting [3]), the “inflammatory responses of the livers” value is listed as “inhibit” and the “lipid accumulation, caused by the high fat diets, of the rat livers” value is on record as “effectively lower”. In assay [2] (setting [4]), the “Liver TC” value is reported as 0.472 ± 0.201** mmoL/gprot, the “Liver TG” value was 1.240 ± 0.213** mmoL/gprot, the “Serum LDL-c” value is recorded as 47.25 ± 7.45* mg/dL and the “Serum TG” value was 18.83 ± 4.11** mg/dL. In addition, in assay [2] (setting [5]), the ALT was 65.86 ± 10.43*** U/L, the AST is given as 127.21 ± 9.34* U/L and the MDA was 11.59 ± 2.88*.

These data come from US20220331348A1, “METHOD OF PREPARING PENTACYCLIC TRITERPENOID SAPONINS AND DRUG COMPOSITION” (CHINA PHARMACEUTICAL UNIVERSITY, priority 2019, published 2022).
